Test results from the NIST ThermoML archive (doi:10.1021/acs.jced.6b00542).

Assays:
[1] = xn = mol fraction of the nth substance listed; details: Liquid; for speed of sound: 100 kPa, Frequency=3 MHz, Sing-around technique in a fixed-path interferometer; for viscosity / mass density: 102 kPa; for viscosity: Concentric cylinders viscometry; for mass density: Vibrating tube method
[2] = for speed of sound: 100 kPa, Frequency=3 MHz, Sing-around technique in a fixed-path interferometer; for speed of sound / viscosity / mass density: Liquid; for viscosity / mass density: 102 kPa; for viscosity: Concentric cylinders viscometry; for mass density: Vibrating tube method; for surface tension liquid-gas: Pendant drop shape

CCCCc1ccccc1 [butylbenzene] + CCCCCCCCCCCCCCCCC
[1], x1 = 1
Details	mass density [kg/m3]	speed of sound [m/s]	viscosity [mPa·s]
303.15 K	852.49	1314.9	0.91
313.15 K	844.43	1276.6	0.801
323.15 K	836.34	1238.7	0.713
333.15 K	828.21	1201.4	0.636
343.15 K	819.9	–	0.571
353.15 K	811.7	–	0.516
363.15 K	803.4	–	0.469
373.15 K	795	–	0.43

CCCCCCCCCCCCCCCC [hexadecane]
[2]
Details	mass density [kg/m3]	speed of sound [m/s]	surface tension liquid-gas [mN/m]	viscosity [mPa·s]
293.15 K	773.52	1357.3	–	3.45
294.8 K	–	–	27.4	–
303.15 K	766.58	1320	–	2.74
313.15 K	759.66	1283.4	–	2.22
323.15 K	752.74	1247.5	–	1.84
333.15 K	745.82	1212.1	–	1.55
343.15 K	738.8	–	–	1.32
353.15 K	731.9	–	–	1.14
363.15 K	724.9	–	–	1
373.15 K	717.8	–	–	0.887

CCCCCCCCCCCCCC [tetradecane] + CCCCc1ccccc1
[1], x2 = 0
Details	mass density [kg/m3]	speed of sound [m/s]	viscosity [mPa·s]
293.15 K	762.71	1331.2	2.3
303.15 K	755.65	1293.6	1.88
313.15 K	748.58	1256.4	1.56
323.15 K	741.5	1220.1	1.32
333.15 K	734.4	1184.1	1.13
343.15 K	727.5	–	0.98
353.15 K	720.3	–	0.858
363.15 K	713.1	–	0.76
373.15 K	705.8	–	0.679

CCCCCCCCCCCC [dodecane] + CCCCc1ccccc1
[1], x2 = 0
Details	mass density [kg/m3]	speed of sound [m/s]	viscosity [mPa·s]
293.15 K	748.79	1297.9	1.47
303.15 K	741.54	1259.6	1.24
313.15 K	734.25	1221.9	1.06
323.15 K	726.94	1184.7	0.916
333.15 K	719.59	1148	0.801
343.15 K	712.2	–	0.706
353.15 K	704.7	–	0.627
363.15 K	697.2	–	0.562
373.15 K	689.6	–	0.506

CCCCc1ccccc1 [butylbenzene]
[2]
Details	mass density [kg/m3]	speed of sound [m/s]	surface tension liquid-gas [mN/m]	viscosity [mPa·s]
293.15 K	860.51	1353.7	–	1.05
294.2 K	–	–	29.1	–
303.15 K	852.49	1314.9	–	0.91
313.15 K	844.43	1276.6	–	0.801
323.15 K	836.34	1238.7	–	0.713
333.15 K	828.21	1201.4	–	0.636
343.15 K	819.9	–	–	0.571
353.15 K	811.7	–	–	0.516
363.15 K	803.4	–	–	0.469
373.15 K	795	–	–	0.43

CCCCCCCCCCCCCC [tetradecane]
[2]
Details	mass density [kg/m3]	speed of sound [m/s]	surface tension liquid-gas [mN/m]	viscosity [mPa·s]
293.15 K	762.71	1331.2	–	2.3
294.6 K	–	–	26.2	–
303.15 K	755.65	1293.6	–	1.88
313.15 K	748.58	1256.4	–	1.56
323.15 K	741.5	1220.1	–	1.32
333.15 K	734.4	1184.1	–	1.13
343.15 K	727.5	–	–	0.98
353.15 K	720.3	–	–	0.858
363.15 K	713.1	–	–	0.76
373.15 K	705.8	–	–	0.679

CCCCCCCCCC [decane] + CCCCc1ccccc1
[1], x2 = 0
Details	mass density [kg/m3]	speed of sound [m/s]	viscosity [mPa·s]
293.15 K	729.88	1253.8	0.922
303.15 K	722.31	1214.5	0.794
313.15 K	714.69	1175.7	0.693
323.15 K	707.02	1137.3	0.615
333.15 K	699.29	1099.3	0.545
343.15 K	691.5	–	0.486
353.15 K	683.6	–	0.436
363.15 K	675.6	–	0.396
373.15 K	667.5	–	0.362

CCCCCCCCCCCCCCCCC [heptadecane]
[2]
Details	mass density [kg/m3]	speed of sound [m/s]	viscosity [mPa·s]
303.15 K	771.02	1330.9	3.25
313.15 K	764.16	1294.5	2.61
323.15 K	757.3	1258.8	2.14
333.15 K	750.45	1223.8	1.79
343.15 K	743.7	–	1.52
353.15 K	736.8	–	1.3
363.15 K	729.8	–	1.14
373.15 K	723	–	1

CCCCCCCCCCCC [dodecane]
[2]
Details	mass density [kg/m3]	speed of sound [m/s]	surface tension liquid-gas [mN/m]	viscosity [mPa·s]
293.15 K	748.79	1297.9	–	1.47
294.1 K	–	–	25.1	–
303.15 K	741.54	1259.6	–	1.24
313.15 K	734.25	1221.9	–	1.06
323.15 K	726.94	1184.7	–	0.916
333.15 K	719.59	1148	–	0.801
343.15 K	712.2	–	–	0.706
353.15 K	704.7	–	–	0.627
363.15 K	697.2	–	–	0.562
373.15 K	689.6	–	–	0.506

CCCCCCCCCC [decane]
[2]
Details	mass density [kg/m3]	speed of sound [m/s]	surface tension liquid-gas [mN/m]	viscosity [mPa·s]
293.15 K	729.88	1253.8	–	0.922
294.6 K	–	–	23.8	–
303.15 K	722.31	1214.5	–	0.794
313.15 K	714.69	1175.7	–	0.693
323.15 K	707.02	1137.3	–	0.615
333.15 K	699.29	1099.3	–	0.545
343.15 K	691.5	–	–	0.486
353.15 K	683.6	–	–	0.436
363.15 K	675.6	–	–	0.396
373.15 K	667.5	–	–	0.362

CCCCCCCCCCCCCCCC [hexadecane] + CCCCc1ccccc1
[1], x2 = 0
Details	mass density [kg/m3]	speed of sound [m/s]	viscosity [mPa·s]
293.15 K	773.52	1357.3	3.45
303.15 K	766.58	1320	2.74
313.15 K	759.66	1283.4	2.22
323.15 K	752.74	1247.5	1.84
333.15 K	745.82	1212.1	1.55
343.15 K	738.8	–	1.32
353.15 K	731.9	–	1.14
363.15 K	724.9	–	1
373.15 K	717.8	–	0.887
